# According to patent publication US20110034472A1, “Novel Compounds for Treatment of Cancer and Disorders Associated With Angiogenesis Function” (UNIVERSITY OF SOUTHERN CALIFORNIA, priority 2004, published 2011):
# Entries after “also recorded” stand apart in the source; their conditions may differ. Where a name gives a salt, the structure may show the parent alone. Read-outs that look alike come from different tables or passages of the source.
# Experiments:
# [1] = drugs with known mechanisms of cell cycle regulation; cited from earlier work
# [2] = tested on: MDA-MB-435 cells; assay: MTT assay, continuous drug exposure for 48 hours (Table 3); format: cell-based, human; details: for IC80: MDA-MB-435, read-out: CC80
# [3] = tested on: PC3 prostate cancer cells; assay: MTT cytotoxicity assay, PC3; format: cell-based; details: Homo sapiens; PC3; 72 hours continuous exposure; read-out: IC50 values (mean ± SD)
# Method: (§1) The sensitivity of a panel of seven human cancer cell lines to SC144 was assessed by MTT-assay. […] The sensitivity towards SC144 was time- and dose-dependent.
# (§2) Cytotoxicity was assessed by a 3-(4,5-dimethylthiazol-2-yl)-2,5-diphenyltetrazolium bromide assay as previously described (Carmichael et al. (1987) Cancer Res. 47:936-42). Briefly, cells were seeded in 96-well microtiter plates (PC3 and DU145 at 5,000 cells/well and LNCaP at 10,000 cells/well; breast and ovarian cells at 4,000 cells/well) and allowed to attach. Cells were subsequently treated with a continuous exposure to the corresponding drug for 72 hours. A 3-(4,5-dimethylthiazol-2-yl)-2,5-diphenyltetrazolium bromide solution (at a final concentration of 0.5 mg/mL) was added to each well and cells were incubated for 4 hours at 37° C. After removal of the medium, DMSO was added and the absorbance was read at 570 nm. All assays were done in triplicate. The IC50 was then determined for each drug from a plot of log(drug concentration) versus percentage of cell kill.
# [4] = tested on: MDA-MB-435 cells; assay: Annexin V/PI apoptosis analysis, SC144 and CPT; format: cell-based, human; details: 48 h; IC80
# From the text: Cells were stained with annexin V/PI and analyzed by flow cytometry. Cells in the bottom left quadrant of each panel (Annexin V-negative, PI-negative) are viable, whereas cells in the bottom right quadrant (Annexin V-positive, PI-negative) are in the early stages of apoptosis, and cells in the top right quadrant (Annexin V-positive, PI-positive) are in later stages of apoptosis and necrosis.
# (§3) An early event in apoptotic cell death is the translocation of the phosphatidyl-serine residues to the outer part of the cell membrane. This event precedes nuclear breakdown, DNA fragmentation, the appearance of most apoptosis-associated molecules, and is readily measured by annexin V binding assay. By this method, SC144 was compared with CPT.
# [5] = tested on: MDA-MB-468 breast cancer cells; assay: MTT cytotoxicity assay, MDA-MB-468; format: cell-based; details: Homo sapiens, 72 hours continuous exposure, read-out: IC50 values (mean ± SD)
# Method: as §1, §2
# [6] = tested on: MCF-7 breast cancer cells; assay: MTT cytotoxicity assay, MCF-7; format: cell-based, human; details: Homo sapiens, MCF7; MCF-7; 72 hours continuous exposure; read-out: IC50 values (mean ± SD)
# Method: as §1, §2
# [7] = tested on: PC3 and DU145 cells; assay: Apoptosis by sub-G0/G1 population (flow cytometry); format: cell-based, human; details: IC80 dose for 72 hours
# Method: Apoptotic cell population increased with time in PC3 and DU145 treated with SC21 and CPT.
# as §3, with “SC21 and CPT-induced apoptosis was measured by flow cytometry (FIG. 18). SC21 at an IC80 dose for 72 hours induced 12% to 15% apoptosis as measured by calculating sub-G0/G1 population. […] An” for “An”, “region” for “part”, “we” for “SC144 was”, “compared SC21” for “compared”
# [8] = tested on: LNCaP prostate cancer cells; assay: MTT cytotoxicity assay, LNCaP; format: cell-based; details: Homo sapiens
# Method: as §2
# (§4) Cytotoxicity was assessed by a 3-(4,5-dimethylthiazol-2-yl)-2,5-diphenyltetrazolium bromide (MTT) assay as previously described.^9 Briefly, cells were seeded in 96-well microtiter plates and allowed to attach. Cells were subsequently treated with continuous exposure to the corresponding drug for 72 h. An MTT solution (at a final concentration of 0.5 mg/mL) was added to each well, and cells were incubated for 4 h at 37° C. After removal of the medium, DMSO was added and the absorbance was read at 570 nm. All assays were done in triplicate. The IC50 was then determined for each drug from a plot of log (drug concentration) versus percentage of cells killed.
# [9] = tested on: MDA-MB-435 breast cancer cells; assay: MTT cytotoxicity assay, MDA-MB-435; format: cell-based, human; details: for IC50: Homo sapiens
# Method: as §1, §2, §4
# [10] = tested on: DU145 cells; assay: Annexin V/propidium iodide apoptosis assay, DU145; format: cell-based, human; details: 72 hours exposure, IC80
# Method: FIG. 19 illustrates apoptosis analysis of DU145 cells treated with SC21 or CPT (IC80). Cells were treated with SC21 or CPT for 24, 48, and 72 h, harvested, stained with annexin V/propidium iodide and analyzed by flow cytometry. Untreated control cells (24 and 48 h) were also included in the analysis. Annexin VFITC signals are recorded in FL1-H or […] and propidium iodide in FL2-H or […]. Cells in the bottom left quadrant (annexin V-negative, propidium iodide-negative) are viable, whereas cells in the right quadrant (annexin V-positive, propidium iodide-negative) are in the early stages of apoptosis, and the cells in the top right quadrant (annexin V-positive, propidium iodide-positive) are in later stages of apoptosis and necrosis.
# To quantify drug-induced apoptosis, annexin V/propidium iodide staining was done followed by flow cytometry. […] The resulting fluorescence (FLH-1 channel for green fluorescence and FLH-2 channel for red fluorescence) was measured by flow cytometry using a FACScan flow cytometer (Becton Dickinson).
# SC21 and CPT-induced apoptosis was measured by flow cytometry (FIG. 18). SC21 at an IC80 dose for 72 hours induced 12% to 15% apoptosis as measured by calculating sub-G0/G1 population. […] This event precedes nuclear breakdown, DNA fragmentation, the appearance of most apoptosis-associated molecules, and is readily measured by annexin V binding assay. […]
# [11] = tested on: DU145 prostate cancer cells; assay: MTT cytotoxicity assay, DU145; format: cell-based; details: Homo sapiens, DU-145, 72 hours continuous exposure, read-out: IC50 values (mean ± SD)
# Method: as §1, §2
# [12] = tested on: HEY ovarian cancer cells; assay: MTT cytotoxicity assay, HEY; format: cell-based, human; details: Homo sapiens; HEY; 72 hours continuous exposure; read-out: IC50 values (mean ± SD)
# Method: as §1, §2
# [13] = tested on: CEM or HEY cells; assay: Cytotoxicity of salicylhydrazides (Table 5); format: cell-based; details: Homo sapiens
# From the text: Human prostate cancer cells (PC3, p53 null, AR−; DU145, p53 mutant, AR−; and LNCaP, p53 wild-type, AR+) and breast cancer cells (MCF-7, overexpressed wild-type p53, ER+; MDA-MB-468, p53 mutant, […]; and MDA-MB-435, p53 mutant, ER−) were obtained from American Type Cell Culture (Manassas, Va.). The human ovarian carcinoma cell line (HEY) naturally resistant to cisplatin (CDDP) was kindly provided by Dr. Dubeau (University of Southern California Norris Cancer Center; Buick et al. (1985) Cancer Res. 45:3668-76 and Hamaguchi et al. (1993) Cancer Res. 53:5225-32). The results with CEM cells were previously described (Neamati et al. (1998) J. Med. Chem. 41:3202-9). Cells were maintained as monolayer cultures in RPMI 1640 supplemented with 10% fetal bovine serum (Gemini-Bioproducts, Woodland, Calif.) and 2 mmol/L L-glutamine at 37° C. in a humidified atmosphere of 5% CO2. To remove the adherent cells from the flask for passaging and counting, cells were washed with PBS without calcium or magnesium, incubated with a small volume of 0.25% trypsin-EDTA solution (Sigma-Aldrich, St. Louis, Mo.) for 5 to 10 minutes, and washed with culture medium and centrifuged. All experiments were done using cells in exponential cell growth.
# as §2
# [14] = molecular target: human CYP3A4 (Homo sapiens, UniProt P08684); assay: Inhibition of human cDNA-expressed CYP3A4 (BFC metabolism); format: in vitro ADME; details: BFC substrate, 37° C.
# human CYP3A4, sequence (P08684 whole entry): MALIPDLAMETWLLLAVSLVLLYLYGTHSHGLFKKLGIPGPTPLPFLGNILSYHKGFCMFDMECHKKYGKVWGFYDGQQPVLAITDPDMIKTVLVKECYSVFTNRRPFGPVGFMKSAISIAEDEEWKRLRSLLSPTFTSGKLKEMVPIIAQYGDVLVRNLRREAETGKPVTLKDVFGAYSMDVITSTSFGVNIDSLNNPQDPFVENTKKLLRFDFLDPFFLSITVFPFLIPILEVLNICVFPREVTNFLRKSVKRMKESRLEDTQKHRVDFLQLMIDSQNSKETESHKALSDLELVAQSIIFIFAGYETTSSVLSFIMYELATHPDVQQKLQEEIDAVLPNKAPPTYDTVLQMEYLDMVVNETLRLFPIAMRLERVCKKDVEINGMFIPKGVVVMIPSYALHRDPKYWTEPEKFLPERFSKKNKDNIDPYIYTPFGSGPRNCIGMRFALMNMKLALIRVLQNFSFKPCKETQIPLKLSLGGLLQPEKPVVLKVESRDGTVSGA
# Method: The metabolism of fluorescent substrates by human cDNA-expressed CYP3A4 was assessed by incubation in 96 well plate at 37° C. Metabolism of 7-benzyloxy-4-trifluoromethylcoumarin (BFC) was assayed by measuring the production of the corresponding 7-hydroxy-4-trifluoro-methylcoumarin.
# The investigation of cytochrome P450 enzyme inhibition by potential drug candidates can aid in predicting drug-drug interactions and/or unfavorable PK profiles produced upon dosing.
# [15] = tested on: HT29 colon cancer cells; assay: MTT cytotoxicity assay, HT 29; format: cell-based, human; details: Homo sapiens, 72 h
# From the text: (§5) Human breast cancer cells MDA-MB-435 and colon cancer HT29, p53 mutant were purchased from the American Type Cell Culture (Manassas, Va.). The HCT116 P53^+/+ and HCT116 P53^−/− cells were kindly provided by Dr. Bert Vogelstein (Johns Hopkins Medical Institutions, Baltimore, Md.). Human prostate cancer cells, LNCaP, were kindly provided by Richard Cote (University of Southern California Keck School of Medicine). Cells were maintained as monolayer cultures in RPMI 1640 media supplemented with 10% fetal bovine serum (Gemini-Bioproducts, Woodland, Calif.) and 2 mmol/L L-glutamine at 37° C. in a humidified atmosphere of 5% CO2. To remove the adherent cells from the flask for passaging and counting, cells were washed with PBS without calcium or magnesium, incubated with a small volume of 0.25% trypsin-EDTA solution (Sigma-Aldrich, St. Louis, Mo.) for 5-10 min, and washed with culture medium and centrifuged. All experiments were performed using cells at exponential growth stage. Cells were routinely checked for mycoplasma contamination using a PCR-based assay (Stratagene, Cambridge, UK).
# as §4
# [16] = tested on: human cancer cell lines (MDA-MB-435 and three colon cancer cells); assay: MTT assay, panel of breast, colon and prostate cell lines (Example V); format: cell-based
# Method: All new compounds were tested in four human cancer cell lines, a breast cancer cell, MDA-MB-435, and three colon cancer cells.
# as §4
# [17] = tested on: HCT 116 p53^+/+ colon cancer cells; assay: MTT cytotoxicity assay, HCT 116 p53+/+; format: cell-based, human; details: Homo sapiens, 72 h
# From the text: as §5, §4
# [18] = tested on: HCT 116 p53^−/− colon cancer cells; assay: MTT cytotoxicity assay, HCT 116 p53-/-; format: cell-based, human; details: Homo sapiens, 72 h
# From the text: as §5, §4
# [19] = tested on: cancer cells; assay: Colony formation assay; format: cell-based; details: doses ≧1 uM; hydrochloride
# Method: FIG. 32. […] (A) The IC50 values of SC161′ range from 0.3 to 4 uM in representative breast, colon, and prostate cell lines using MTT assay.
# Colony formation assays were also performed to confirm the activity of these compounds as described.^10 Briefly, cells were plated in 6-well plates at a density of 100 cells/well and allowed to attach. The next day, serial dilutions of the corresponding compounds were added and allowed to incubate for 24 h. After exposure, cells were washed in PBS and cultured in free media until colonies were formed (8-10 days). Cells were subsequently washed, fixed with a 1% glutaraldehyde solution for 30 min, and stained with a solution of crystal violet (2%) for 30 min. After staining, cells were thoroughly washed with water. Colonies were imaged on the Versa-Doc Imaging System (Bio-Rad) and counted using the Quantity One quantitation software package (Bio-Rad). The data reported represent means of at least three independent experiments.
# [20] = 72 hours continuous exposure, read-out: IC50 values (mean ± SD)
# [21] = hLNCaP, MTT, 72 h, read-out: IC50
smiles,measurement,setting,value
O=c1[nH]cc(F)c(=O)[nH]1 [5-Fluorouracil],Cell cycle profile,[1],S-phase
same,CC50,"[2]; Homo sapiens, MDA-MB-435",29000 ± 10700 nM
same,IC80,[2]; Homo sapiens,100000 ± 10 nM
"CC[C@@]1(O)C(=O)OCc2c1cc1n(c2=O)Cc2cc3ccccc3nc2-1 [CPT, Camptothecin, reference compound]",IC50,[3],900 ± 210 nM
same,early-apoptotic cells,[4],34%
same,late-apoptosis/necrosis,[4],39%
same,IC50,[5],100 ± 2 nM
same,IC50,[6],30 ± 3 nM
same,apoptosis (sub-G0/G1 population),[7],30%
same,IC50,[8]; [20],25 ± 6 nM
same,IC50,[9]; [20],27 ± 2 nM
same,early plus late apoptotic cells,[10],59%
same,CC50,"[2]; Homo sapiens, MDA-MB-435",30 ± 2 nM
same,IC80,[2]; Homo sapiens,100 ± 2 nM
same,IC50,[11],25 ± 7 nM
same,IC50,[12],35 ± 7 nM
C=C/C=C(\C(=C)O)C(=O)N1N=C(C)/C(=C\c2cccc(O)c2)C1=O [SC24],IC50,[13],130 nM
same,CC50,[2],240 ± 30 nM
same,IC80,[2]; Homo sapiens,970 nM
same,inhibition of CYP3A4 activity,[14],does not significantly inhibit CYP3A4 activity
"O=C(NNc1nc2ccccc2n2cccc12)C1CSCN1 (stereo not shown) [SC153, Thiazolidine-4-carboxylic acid N′-pyrrolo[1,2-a]quinoxalin-4-yl-hydrazide]",melting point,,162 °C
same,IC50,[15],14000 ± 1000 nM
same,activity against colon cancer lines,[16],moderately active
same,IC50,[17],15000 ± 3000 nM
same,activity against the breast cancer line,[9],inactive
same,IC50,"[9]; MTT, 72 h, read-out: IC50",> 20000 nM
same,IC50,[18],10000 ± 2000 nM
"NC(CC(=O)NNc1nc2ccccc2n2cccc12)c1ccccc1Cl (stereo not shown) [SC160, 3-Amino-3-(2-chloro-phenyl)-propionic acid N′-pyrrolo[1,2-a]quinoxalin-4-yl-hydrazide]",IC50,[15],17000 nM
same,IC50,[17],> 20000 nM
same,IC50,[8]; [21],> 20000 nM
same,IC50,"[9]; MTT, 72 h, read-out: IC50",> 20000 nM
same,IC50,[18],> 20000 nM
"NC(CC(=O)NNc1nc2ccccc2n2cccc12)c1ccc(Cl)cc1 (stereo not shown) [SC161, 3-Amino-3-(4-chloro-phenyl)-propionic acid N′-pyrrolo[1,2-a]quinoxalin-4-yl-hydrazide]",IC50,[15],300 ± 60 nM
same,IC50,[17],400 ± 10 nM
same,IC50,[8]; [21],400 nM
same,IC50,"[9]; MTT, 72 h, read-out: IC50",3000 ± 2000 nM
same,IC50,[18],300 ± 70 nM
"O=C(NNc1nc2cccc(F)c2n2cccc12)c1cnccn1 [SC161′, N′-(9-Fluoropyrrolo[1,2-a]quinoxalin-4-yl)pyrazine-2-carbohydrazide hydrochloride]",activity in all cell lines,[16],highly active
same,IC50,"[16]; Homo sapiens, MDA-MB-435, representative breast, colon, and prostate cell lines, MTT assay, read-out: IC50 values range",300 to 4000 nM
same,colony formation,[19],completely blocks colony formation; also recorded: completely abolished cell growth
